The target in one assay is human ATX (Homo sapiens (Human), UniProt Q13822). The assay can be described thus: Human ATX enzyme inhibition assay (fluorescence quenching, MR121 substrate). It counts as biochemical. Conditions: human His-tagged ATX 30 nM, MR121 substrate 1 μM. Here is the method:
Production of Human Full Length ATX, with and without His Tag
Autotaxin (ATX-ENPP2) cloning: cDNA was prepared from commercial human hematopoietic cells total RNA and used as template in overlapping PCR to generate a full length human ENPP2 ORF with or without a 3′-6× His tag. These full length inserts were cloned into the pcDNA3.1V5-His TOPO (Invitrogen) vector. The DNA sequences of several single clones were verified. The DNA from a correct full length clone was used to transfect Hek293 cells for verification of protein expression. The sequence of the encoded ENPP2 conforms to Swissprot entry Q13822, with or without the additional C-terminal 6× His tag.
ATX Fermentation: Recombinant protein was produced by large-scale transient transfection in 20 L controlled stirred tank bioreactors (Sartorius). During cell growth and transfection, temperature, stirrer speed, pH and dissolved oxygen concentration were maintained at 37° C., 120 rpm, 7.1 and 30% DO, respectively. FreeStyle 293-F cells (Invitrogen) were cultivated in suspension in FreeStyle 293 medium (Invitrogen) and transfected at ca. 1-1.5×10E6 cells/mL with above plasmid DNAs using X-tremeGENE Ro-1539 (commercial product, Roche Diagnostics) as complexing agent. Cells were fed a concentrated nutrient solution (J Immunol Methods 194 (1996), 19, 1-199 (page 193)) and induced by sodium butyrate (2 mM) at 72 h post-transfection and harvested at 96 h post-transfection. Expression was analyzed by Western Blot, enzymatic assay and/or analytical IMAC chromatography. After cooling the cell suspension to 4° C. in a flow-through heat exchanger, cell separation and sterile filtration of supernatant was performed by filtration through Zeta Plus 60M02 E16 (Cuno) and Sartopore 2 XLG (Sartorius) filter units. The supernatant was stored at 4° C. prior to purification.
ATX Purification: 20 liter of culture supernatant were conditioned for ultrafiltration by adding Brij 35 to a final concentration of 0.02% and by adjusting the pH to 7.0 using 1 M HCl. Then the supernatant was first microfiltred through a 0.2 µm Ultran-Pilot Open Channel PES filter (Whatman) and afterwards concentrated to 1 liter through an Ultran-Pilot Screen Channel PES filter with 30 kDa MWCO (Whatman). Prior to IMAC chromatography, NiSO4 was added to a final concentration of 1 mM. […] The column was washed stepwise with the same buffer containing 20 mM, 40 mM and 50 mM imidazole, respectively. The protein was subsequently eluted using a linear gradient to 0.5 M imidazole in 15 column volumes. ATX containing fractions were pooled and concentrated using an Amicon cell equipped with a 30 kDa PES filter membrane. […] Final yield of protein after purification was 5-10 mg ATX per liter of culture supernatant. The protein was stored at −80° C.
Human ATX Enzyme Inhibition Assay
Test compounds (10 mM stock in DMSO, 8 μL) were obtained in 384 well sample plates (Corning Costar #3655) and diluted with 8 μL DMSO. […] Then, 15 μL of 41.7 nM ATX solution was added (30 nM final concentration), mixed five times and then incubated for 15 minutes at 30° C. 10 μL of MR121 substrate solution was added (1 μM final concentration), mixed 30 times and then incubated for 15 minutes at 30° C.

For assay [1], the target named is Human carbonic anhydrase II (hCA-II) (Homo sapiens (Human), UniProt P00918). Description: Human carbonic anhydrase-II inhibition assay (absorbance, 4-NPA substrate). The class given is biochemical. The settings on record: hCA II 8 nM, 4-NPA 2.5 mM, absorbance 340 nm; read-out: CA-II IC50. The procedure:
Human Carbonic Anhydrase-II Inhibition Assay
Then 30 μL of 16 nM hCA II solution was added (8 nM final concentration), mixed five times. 30 μL of 4-NPA substrate solution was added (2.5 mM final concentration), mixed five times.

The values that follow come from patent US10738053B2, “Bicyclic compounds as dual ATX/CA inhibitors” (Hoffmann-La Roche Inc., priority 2015, dated 2020).

As usually defined, the IC50 is the concentration that gives 50% inhibition. As to `CO[C@@]12CN(C(=O)c3cc(OCC4CCOCC4)nc(C4CC4)c3)C[C@H]1CN(C(=O)c1ccc(S(N)(=O)=O)cn1)C2` (relative stereo) [Example 1.09, trans-6-[5-[2-cyclopropyl-6-(oxan-4-ylmethoxy)pyridine-4-carbonyl]-3a-methoxy-3,4,6,6a-tetrahydro-1H-pyrrolo[3,4-c]pyrrole-2-carbonyl]pyridine-3-sulfonamide], the IC50 (at human ATX; in assay [1]) was 10 nM each time.

For `NS(=O)(=O)c1ccc(C(=O)N2C[C@H]3CN(C(=O)OCc4ccc(OC(F)(F)F)cc4)C[C@]3(F)C2)c(F)c1` (relative stereo) [Example 2.00, trans-5-(2-Fluoro-4-sulfamoyl-benzoyl)-3a-fluoro-hexahydro-pyrrolo[3,4-c]pyrrole-2-carboxylic acid 4-trifluoromethoxy-benzyl ester], the IC50 was 7 nM at human ATX and 6 nM in assay [1].

On to `NS(=O)(=O)c1ccc(C(=O)N2C[C@H]3CN(C(=O)/C=C/c4ccc(OC(F)(F)F)cc4)C[C@]3(F)C2)c(F)c1` (relative stereo) [Example 3.00, trans-4-[3a-Fluoro-2-[(E)-3-[4-(trifluoromethoxy)phenyl]prop-2-enoyl]-3,4,6,6a-tetrahydro-1H-pyrrolo[3,4-c]pyrrole-5-carbonyl]-3-fluorobenzenesulfonamide], for which the IC50 against human ATX was determined as 5 nM; in assay [1], 9 nM.

Turning to `NS(=O)(=O)c1ccc(C(=O)N2C[C@@H]3CN(C(=O)c4cc(OCC5CCOCC5)nc(C5CC5)c4)C[C@@]3(F)C2)c(F)c1` (relative stereo) [Example 3.02, trans-4-[5-[2-cyclopropyl-6-(oxan-4-ylmethoxy)pyridine-4-carbonyl]-3a-fluoro-3,4,6,6a-tetrahydro-1H-pyrrolo[3,4-c]pyrrole-2-carbonyl]-3-fluorobenzenesulfonamide], the IC50 at human ATX turned out to be 8 nM; in assay [1] it was 6 nM.

With `NS(=O)(=O)c1ccc(C(=O)N2C[C@H]3CN(C(=O)CCc4ccc(OC(F)(F)F)cc4)C[C@]3(F)C2)c(F)c1` (relative stereo) [Example 3.03, trans-4-[3a-fluoro-2-[3-[4-(trifluoromethoxy)phenyl]propanoyl]-3,4,6,6a-tetrahydro-1H-pyrrolo[3,4-c]pyrrole-5-carbonyl]-3-fluorobenzenesulfonamide], the IC50 at human ATX was 4 nM; in assay [1], 6 nM.

`CO[C@@]12CN(C(=O)OCc3ccc(OC(F)(F)F)cc3)C[C@H]1CN(C(=O)c1ccc(S(N)(=O)=O)cc1)C2` (single isomer, unassigned) [Example 4.01, (−)-trans-5-(4-sulfamoyl-benzoyl)-3a-methoxy-hexahydro-pyrrolo[3,4-c]pyrrole-2-carboxylic acid 4-trifluoromethoxy-benzyl ester]: the values for the IC50 (on human ATX; in assay [1]) were 13 nM and 18 nM, respectively.

For the molecule `NS(=O)(=O)c1ccc(C(=O)N2C[C@@H]3CN(C(=O)OCc4ccc(OC(F)(F)F)cc4)C[C@@]3(F)C2)cc1` (single isomer, unassigned) [Example 4.02, (−)-trans-5-(4-sulfamoyl-benzoyl)-3a-fluoro-hexahydro-pyrrolo[3,4-c]pyrrole-2-carboxylic acid 4-trifluoromethoxy-benzyl ester], the IC50 at human ATX came to 8 nM; in assay [1], 10 nM.

On to `CO[C@@]12CN(C(=O)OCc3ncc(C(F)(F)F)cc3NC(=O)C(C)(C)C)C[C@H]1CN(C(=O)c1ccc(S(N)(=O)=O)cc1)C2` (single isomer, unassigned) [Example 4.03, (−) trans-5-(4-sulfamoyl-benzoyl)-3a-methoxy-hexahydro-pyrrolo[3,4-c]pyrrole-2-carboxylic acid 3-(2,2-dimethyl-propionylamino)-5-trifluoromethyl-pyridin-2-ylmethyl ester], for which the IC50 came to 11 nM on human ATX and 13 nM in assay [1].

As for `CO[C@@]12CN(C(=O)OCc3ccc(OC(F)(F)F)cc3)C[C@H]1CN(C(=O)c1ccc(S(N)(=O)=O)cc1)C2` (single isomer, unassigned) [Example 5.01, (+)-trans-5-(4-sulfamoyl-benzoyl)-3a-methoxy-hexahydro-pyrrolo[3,4-c]pyrrole-2-carboxylic acid 4-trifluoromethoxy-benzyl ester], the values for the IC50 (against human ATX; in assay [1]) were 6 nM and 27 nM, respectively.

For `NS(=O)(=O)c1ccc(C(=O)N2C[C@@H]3CN(C(=O)OCc4ccc(OC(F)(F)F)cc4)C[C@@]3(F)C2)cc1` (single isomer, unassigned) [Example 5.02, (+)-trans-5-(4-sulfamoyl-benzoyl)-3a-fluoro-hexahydro-pyrrolo[3,4-c]pyrrole-2-carboxylic acid 4-trifluoromethoxy-benzyl ester], the IC50 came out at 4 nM against human ATX and 15 nM in assay [1].

Regarding `CO[C@@]12CN(C(=O)OCc3ncc(C(F)(F)F)cc3NC(=O)C(C)(C)C)C[C@H]1CN(C(=O)c1ccc(S(N)(=O)=O)cc1)C2` (single isomer, unassigned) [Example 5.03, (+)-trans-5-(4-sulfamoyl-benzoyl)-3a-methoxy-hexahydro-pyrrolo[3,4-c]pyrrole-2-carboxylic acid 3-(2,2-dimethyl-propionylamino)-5-trifluoromethyl-pyridin-2-ylmethyl ester], the results for the IC50 (on human ATX; in assay [1]) were 13 nM and 20 nM, respectively.

Turning to `C[C@@]12CN(C(=O)OCc3ccc(OC(F)(F)F)cc3)C[C@H]1CN(C(=O)c1ccc(S(N)(=O)=O)cc1)C2` [Example 4.00, (+)-(3aR,6aR)-3a-Methyl-5-(4-sulfamoyl-benzoyl)-hexahydro-pyrrolo[3,4-c]pyrrole-2-carboxylic acid 4-trifluoromethoxy-benzyl ester], the IC50 at human ATX worked out at 6 nM; in assay [1], 95 nM.

For `C[C@]12CN(C(=O)OCc3ccc(OC(F)(F)F)cc3)C[C@@H]1CN(C(=O)c1ccc(S(N)(=O)=O)cc1)C2` [Example 5.00, (−)-(3aS,6aS)-3a-methyl-5-(4-sulfamoylbenzoyl)-hexahydro-pyrrolo[3,4-c]pyrrole-2-carboxylic acid 4-trifluoromethoxy-benzyl ester], the IC50 turned out to be 7 nM at human ATX and 38 nM in assay [1].
